For assay [1], the target named is Tyrosine-protein kinase ABL1 (Mus musculus) (UniProt P00520). In words: Induction of nuclear translocation of cAbl of mouse BA/F3 cells. As to conditions: BaF3. The assay is classed as cell-based.
Assay [2] shares this target. Description: Induction of translocation of cAbl in to mitochondria of mouse BA/F3 cells assessed as caspase9 cleavage. As to conditions: BaF3.
For assay [3] the target is unchanged. Description: Induction of translocation of cAbl in to mitochondria of mouse BA/F3 cells assessed as caspase 8 cleavage. As to conditions: BaF3.
A short description of assay [4]: Cytotoxicity against mouse BA/F3 cells overexpressing BCR-Abl T315I mutant. It counts as functional. The settings on record: BaF3, read-out: LD50 (the source's name).
In assay [5] the target is Bcr/Abl fusion protein (Homo sapiens) (UniProt P00519+P11274). In words: Binding affinity to Bcr-Abl expressed in mouse BA/F3 cells at 5 uM. It counts as cell-based. The settings on record: BaF3.
A short description of assay [6]: Cytotoxicity against mouse BA/F3 cells. The assay is classed as functional. The settings on record: BaF3, read-out: LD50 (the source's name).
Assay [7] addresses Tyrosine-protein kinase ABL1 (Mus musculus) (UniProt P00520). In words: Induction of translocation of cAbl in to mitochondria of mouse BA/F3 cells. The settings on record: BaF3.

The source made the active and inactive calls. The rule behind the calls is not given here.

Sequence of Tyrosine-protein kinase ABL1 (Mus musculus) (P00520 whole entry): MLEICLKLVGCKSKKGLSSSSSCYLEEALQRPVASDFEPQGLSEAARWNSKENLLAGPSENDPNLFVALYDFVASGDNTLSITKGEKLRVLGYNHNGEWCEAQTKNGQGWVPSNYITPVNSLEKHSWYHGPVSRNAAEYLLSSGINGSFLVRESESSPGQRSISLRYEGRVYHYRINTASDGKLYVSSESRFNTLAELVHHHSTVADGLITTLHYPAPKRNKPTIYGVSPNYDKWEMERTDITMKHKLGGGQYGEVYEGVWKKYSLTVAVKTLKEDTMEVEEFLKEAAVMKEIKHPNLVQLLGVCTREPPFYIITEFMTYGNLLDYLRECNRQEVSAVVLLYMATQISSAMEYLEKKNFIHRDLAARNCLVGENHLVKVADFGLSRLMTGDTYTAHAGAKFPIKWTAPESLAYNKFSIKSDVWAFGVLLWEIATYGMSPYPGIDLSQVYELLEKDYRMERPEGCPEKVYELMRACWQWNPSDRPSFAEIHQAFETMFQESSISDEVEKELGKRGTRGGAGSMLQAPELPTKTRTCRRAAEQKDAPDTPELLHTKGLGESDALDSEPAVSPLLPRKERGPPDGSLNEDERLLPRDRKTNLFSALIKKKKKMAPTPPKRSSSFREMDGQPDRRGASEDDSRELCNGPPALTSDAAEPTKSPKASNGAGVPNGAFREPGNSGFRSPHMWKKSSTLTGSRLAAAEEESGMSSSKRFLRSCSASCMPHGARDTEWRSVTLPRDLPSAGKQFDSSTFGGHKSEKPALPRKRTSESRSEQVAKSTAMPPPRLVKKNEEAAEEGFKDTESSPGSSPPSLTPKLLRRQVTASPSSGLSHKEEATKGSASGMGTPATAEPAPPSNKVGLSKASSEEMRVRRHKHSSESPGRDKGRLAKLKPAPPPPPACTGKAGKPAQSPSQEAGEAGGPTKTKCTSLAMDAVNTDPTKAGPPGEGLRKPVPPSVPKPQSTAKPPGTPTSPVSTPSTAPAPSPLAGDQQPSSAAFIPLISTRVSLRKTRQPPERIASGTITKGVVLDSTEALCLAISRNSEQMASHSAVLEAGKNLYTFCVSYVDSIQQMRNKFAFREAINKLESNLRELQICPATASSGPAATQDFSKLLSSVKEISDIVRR
Sequence of Bcr/Abl fusion protein (Homo sapiens) (P00519 whole entry, looked up, the tested form may be a part): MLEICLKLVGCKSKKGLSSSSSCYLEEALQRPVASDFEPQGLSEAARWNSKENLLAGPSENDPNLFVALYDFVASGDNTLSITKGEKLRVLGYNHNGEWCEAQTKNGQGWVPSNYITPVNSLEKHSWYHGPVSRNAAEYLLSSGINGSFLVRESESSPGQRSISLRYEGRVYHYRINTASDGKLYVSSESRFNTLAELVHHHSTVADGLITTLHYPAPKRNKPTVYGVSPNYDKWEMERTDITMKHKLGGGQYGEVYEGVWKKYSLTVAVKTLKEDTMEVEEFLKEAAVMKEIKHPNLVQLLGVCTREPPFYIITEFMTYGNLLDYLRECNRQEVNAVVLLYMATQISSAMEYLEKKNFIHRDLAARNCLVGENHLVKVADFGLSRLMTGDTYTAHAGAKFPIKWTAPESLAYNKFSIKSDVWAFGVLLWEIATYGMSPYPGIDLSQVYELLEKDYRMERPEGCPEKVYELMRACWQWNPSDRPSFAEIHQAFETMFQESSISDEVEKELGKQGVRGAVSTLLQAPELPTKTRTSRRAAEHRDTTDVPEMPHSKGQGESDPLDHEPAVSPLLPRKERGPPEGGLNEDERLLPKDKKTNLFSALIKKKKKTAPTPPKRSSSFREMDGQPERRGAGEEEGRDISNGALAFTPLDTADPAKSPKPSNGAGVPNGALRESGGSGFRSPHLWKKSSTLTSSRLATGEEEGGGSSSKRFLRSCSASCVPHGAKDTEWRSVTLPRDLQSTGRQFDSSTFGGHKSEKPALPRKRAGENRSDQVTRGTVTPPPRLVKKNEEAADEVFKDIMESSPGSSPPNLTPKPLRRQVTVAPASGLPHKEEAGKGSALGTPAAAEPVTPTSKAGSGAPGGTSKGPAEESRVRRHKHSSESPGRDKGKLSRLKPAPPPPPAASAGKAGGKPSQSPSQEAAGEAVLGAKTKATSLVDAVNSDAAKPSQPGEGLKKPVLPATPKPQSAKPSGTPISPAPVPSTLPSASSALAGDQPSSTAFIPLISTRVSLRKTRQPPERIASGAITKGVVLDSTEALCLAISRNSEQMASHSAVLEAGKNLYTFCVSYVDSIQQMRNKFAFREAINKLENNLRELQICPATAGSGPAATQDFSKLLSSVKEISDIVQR
Sequence of Bcr/Abl fusion protein (Homo sapiens) (P11274 whole entry, looked up, the tested form may be a part): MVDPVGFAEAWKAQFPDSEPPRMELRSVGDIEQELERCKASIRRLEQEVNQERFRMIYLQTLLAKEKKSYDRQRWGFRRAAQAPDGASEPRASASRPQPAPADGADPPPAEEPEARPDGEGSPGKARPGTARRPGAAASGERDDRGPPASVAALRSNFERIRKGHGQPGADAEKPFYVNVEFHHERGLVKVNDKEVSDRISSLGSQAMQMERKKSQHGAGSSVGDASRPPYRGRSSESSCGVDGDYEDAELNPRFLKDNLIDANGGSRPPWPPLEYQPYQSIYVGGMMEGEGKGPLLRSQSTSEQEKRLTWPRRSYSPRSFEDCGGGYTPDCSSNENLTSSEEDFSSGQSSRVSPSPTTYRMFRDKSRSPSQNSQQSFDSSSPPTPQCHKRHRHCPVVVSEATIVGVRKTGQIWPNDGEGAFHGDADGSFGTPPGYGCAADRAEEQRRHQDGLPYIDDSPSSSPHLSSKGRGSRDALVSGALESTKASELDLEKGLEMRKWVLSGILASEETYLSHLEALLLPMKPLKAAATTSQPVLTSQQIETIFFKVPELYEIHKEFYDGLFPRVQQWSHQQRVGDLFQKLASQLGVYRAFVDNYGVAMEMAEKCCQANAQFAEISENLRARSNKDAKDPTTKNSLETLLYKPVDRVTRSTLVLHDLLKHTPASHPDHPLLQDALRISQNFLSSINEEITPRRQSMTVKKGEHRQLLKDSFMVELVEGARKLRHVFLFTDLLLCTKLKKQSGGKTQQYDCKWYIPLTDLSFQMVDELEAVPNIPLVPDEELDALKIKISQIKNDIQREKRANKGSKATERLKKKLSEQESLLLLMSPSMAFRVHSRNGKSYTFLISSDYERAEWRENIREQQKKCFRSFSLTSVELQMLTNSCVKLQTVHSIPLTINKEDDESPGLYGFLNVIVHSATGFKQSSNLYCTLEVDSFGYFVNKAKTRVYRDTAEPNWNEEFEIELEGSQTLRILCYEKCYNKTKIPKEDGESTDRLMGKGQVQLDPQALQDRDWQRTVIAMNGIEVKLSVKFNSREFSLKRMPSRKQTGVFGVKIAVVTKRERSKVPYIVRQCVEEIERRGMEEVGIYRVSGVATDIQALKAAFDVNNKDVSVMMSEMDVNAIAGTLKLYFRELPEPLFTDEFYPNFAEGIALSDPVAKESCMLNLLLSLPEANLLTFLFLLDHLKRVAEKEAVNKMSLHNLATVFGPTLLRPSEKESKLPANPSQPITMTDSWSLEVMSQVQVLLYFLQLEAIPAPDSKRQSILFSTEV

Consider `Cc1c(NC(=O)c2c(C(=O)O)cccc2C(=O)O)c(=O)n(-c2ccccc2)n1C`, for which the outcome in assay [1], in assay [2], in assay [3], in assay [5] and in assay [7] was Active. In addition, the CC50 in assay [4] was found to be 1470 nM; in assay [6] it was 1040 nM.

The values are drawn from ChEMBL document CHEMBL1255204, “Identification of the first non-peptidic small molecule inhibitor of the c-Abl/14-3-3 protein-protein interactions able to drive sensitive and Imatinib-resistant leukemia cells to apoptosis” (2010).
